Test results: PMC8081376 (Mutagenesis, 2020)

Experiments:
[1] = test system: Phenion®FT Skin Models (keratinocytes and fibroblasts)
[2] = test system: PRH, HepG2, CHO, TK6, CHL, MA-10 cells; settings: TK6 cell line; ref [73]; cited from earlier work
rats and mice = settings: rodent studies; topical for sodium xylene sulfonate; ref [65], [72], [82], [85]; cited from earlier work
[3] = test system: mammalian cells (CHL, V79, CHO, HuLy); settings: cited from earlier work
[4] = test system: bone marrow, blood, liver, skin; settings: cited from earlier work
[5] = test system: Phenion®FT Skin Models (keratinocytes and fibroblasts); settings: application of the dye to the skin; ref [95]; cited from earlier work
[6] = test system: bacterial reverse mutation test (Ames test) strains; settings: cited from earlier work
[7] = test system: mammalian cells (V79, CHO, CHL, HuLy, TK6, HepG2); settings: cited from earlier work

Row | Compound | Call of statistical prediction models 1 and 2 [1] | Effect on % tail DNA / DNA migration in APC experiment [1] | Effect on % tail DNA / DNA migration in standard experiment [1] | Expert call of the performing laboratory in the coded phase [1] | RS Comet assay overall classification [1] | Dose producing signs of strong cytotoxicity that limited the top dose (Phenion®FT Skin Models) [µg/cm^2] | In vitro comet assay [2] | Carcinogenicity (rats and mice) | In vitro chromosomal aberration studies [3] | In vivo micronucleus test in mice [4] | RS Comet assay outcome in SCCS opinion [5] | Ames test [6] | Standard in vitro micronucleus test [7]
1 | O=CC=O [Glyoxal] | positive | statistically significant increase in DNA migration was observed in keratinocytes at the highest dose tested | DNA migration was not increased in either cell type | negative | negative | 25 | positive response | non-carcinogenic | clear positive results | negative results |  |  | 
2 | C[N+](C)(C)c1ccc2ccc(O)c(N=Nc3ccc(N)c([N+](=O)[O-])c3)c2c1.[Cl-] [Basic Brown 17] |  |  |  |  |  |  |  |  |  |  | lack of DNA damaging properties | positive findings | negative findings
